Each structure is given as a SMILES string. A value given as a limit tells only on which side of the number the result lay.

For assay [1], the system named is HT29/DOX cells. Kind of assay: Doxorubicin co-administration assay (MTT). Format: cell-based, human. The conditions noted are these: compound at 3 µM + doxorubicin 5 µM, 48 h. How it is done: (§1) These compounds were then assayed at 1 and 3 µM concentrations in co-administration with doxorubicin at a concentration of 5 µM, which is known to discriminate well between sensitive and resistant cells. […] Moreover, in the A549/DOX cell line, the co-administration of 1, 2, 4–6, 14 and 19, tested at 3 µM, led to the highest enhancement of doxorubicin toxicity reaching a reduction of nearly 55.0% in cell viability.
(§2) K562/DOX cells were incubated for 72 h with different concentrations of doxorubicin in combination with 1 or 3 µM of all compounds. IC50 was the concentration killing 50% of cells and was determined graphically from relative survival curves obtained by GraphPad Prism 5 software (GraphPad, San Diego, CA, USA). HT29, A549, HT29/DOX and A549/DOX cells were incubated for 48 h with 5 µM doxorubicin, alone or in combination with 1 or 3 µM of selected compounds. Cell viability of the cell lines was measured by the MTT assay, using a Synergy HT microplate spectrofluorometer (Bio-Tek Instruments, Winooski, VT, USA). The absorbance of untreated cells was considered 100%; results were expressed as a percentage of viable treated cells versus the control untreated cells.

Assay [2] has as its system A549/DOX cells. Kind of assay: Doxorubicin co-administration assay (MTT). Format: cell-based, human. The conditions noted are these: compound at 3 µM + doxorubicin 5 µM, 48 h. How it is done: as §1, §2
In a further assay the target is P-gp (Homo sapiens, UniProt P08183). Kind of assay: Calcein-AM transport inhibition in MDCK-MDR1 cells. It counts as cell-based. Details: expressed in transfected cells; host or cells: MDCK (Madin-Darby Canine Kidney). The conditions noted are these: mean ± SEM. The text has this: The MDR interaction potency of these compounds was studied by detecting the inhibition of the P-gp-, MRP1- or BCRP-mediated efflux of a substrate in cells overexpressing the studied pumps. In detail, we measured the following: (i) the transport inhibition of the profluorescent probe calcein-AM (P-gp and MRP1 substrate) in MDCK-MDR1 and MDCK-MRP1 cells (P-gp- and MRP1-overexpressing cells, respectively); (ii) the transport inhibition of the fluorescent probe Hoechst 33342 (BCRP substrate) in MDCK-BCRP cells (BCRP-overexpressing cells).
Sequence of P-gp (P08183 whole entry): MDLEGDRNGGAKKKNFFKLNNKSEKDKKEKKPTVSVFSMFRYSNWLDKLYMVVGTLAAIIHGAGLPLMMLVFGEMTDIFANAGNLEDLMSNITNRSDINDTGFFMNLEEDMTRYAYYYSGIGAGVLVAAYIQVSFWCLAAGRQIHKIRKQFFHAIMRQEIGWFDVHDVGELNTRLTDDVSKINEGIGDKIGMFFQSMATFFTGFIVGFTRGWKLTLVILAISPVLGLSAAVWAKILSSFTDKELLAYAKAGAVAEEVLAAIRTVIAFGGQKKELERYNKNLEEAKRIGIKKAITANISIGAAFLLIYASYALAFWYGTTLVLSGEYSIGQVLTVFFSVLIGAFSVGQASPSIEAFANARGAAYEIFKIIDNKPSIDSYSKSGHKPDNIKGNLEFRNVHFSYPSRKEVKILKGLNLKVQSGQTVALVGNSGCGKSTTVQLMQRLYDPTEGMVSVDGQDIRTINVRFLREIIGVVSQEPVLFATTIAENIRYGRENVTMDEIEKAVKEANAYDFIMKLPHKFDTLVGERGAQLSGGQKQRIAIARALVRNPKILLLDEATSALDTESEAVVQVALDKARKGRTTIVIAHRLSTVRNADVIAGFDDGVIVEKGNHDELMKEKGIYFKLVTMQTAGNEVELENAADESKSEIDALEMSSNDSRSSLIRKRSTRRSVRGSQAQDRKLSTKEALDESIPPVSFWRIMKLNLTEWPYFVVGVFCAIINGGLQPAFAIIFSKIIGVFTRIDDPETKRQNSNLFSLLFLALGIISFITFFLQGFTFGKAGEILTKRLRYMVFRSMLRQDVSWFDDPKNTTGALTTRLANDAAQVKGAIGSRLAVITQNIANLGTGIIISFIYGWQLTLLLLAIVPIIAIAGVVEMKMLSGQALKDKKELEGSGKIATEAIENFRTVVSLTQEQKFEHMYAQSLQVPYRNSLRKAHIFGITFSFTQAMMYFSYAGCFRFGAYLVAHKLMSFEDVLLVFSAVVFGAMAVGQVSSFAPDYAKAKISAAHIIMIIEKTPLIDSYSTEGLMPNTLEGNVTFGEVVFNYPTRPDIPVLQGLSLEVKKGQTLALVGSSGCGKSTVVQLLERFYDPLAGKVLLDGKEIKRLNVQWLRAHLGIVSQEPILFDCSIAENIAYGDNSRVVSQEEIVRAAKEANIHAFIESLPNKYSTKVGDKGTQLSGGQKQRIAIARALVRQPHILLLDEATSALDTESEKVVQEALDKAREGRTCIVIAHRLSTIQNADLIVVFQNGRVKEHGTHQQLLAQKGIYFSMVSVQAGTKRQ
Experiments were performed as previously described. MDCK-MDR1 and MDCK-MRP1 cells (30,000 cells per well) were seeded in a 96-well black CulturePlate in 100 µL of medium and allowed to grow overnight in a humidified atmosphere of 5% CO2 at 37 °C. Tested compounds (100 µL) in a final concentration ranging between 0.01 nM and 100 µM, solubilized in culture medium, were added to the monolayers. After 30 min in a humidified atmosphere of 5% CO2 at 37 °C, 100 µL of Calcein-AM in phosphate-buffered saline (PBS) was added to obtain a final concentration of 2.5 µM and the plate was incubated for 30 min. All wells were washed 3 times with 100 µL ice-cold PBS and read with Victor3 (PerkinElmer) after adding 100 µL of cold PBS. Excitation and emission wavelengths of 485 nm and 535 nm, respectively, were used. In these experimental conditions, cell Calcein-AM accumulation in the absence and in the presence of each tested compound was evaluated and compared to the basal level of fluorescence derived from untreated cells. The increase in fluorescence from the baseline level was measured in the treated wells. EC50 values were determined by fitting the rate of fluorescence increase versus log[dose].

The next assay concerns K562/DOX cells. Kind of assay: Doxorubicin cytotoxicity enhancement assay (MTT). It counts as cell-based, human. The conditions noted are these: compound at 1 µM, 72 h. The procedure, abridged:
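K562/DOX cells exposed 72 h to varying doxorubicin concentrations plus 1 or 3 µM test compound. Viability by MTT absorbance, expressed as percentage of untreated control cells.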

The target in a further assay is T1, hCA IX (Homo sapiens, UniProt Q16790).
T1 construct: made in house
Kind of assay: CA inhibition, stopped-flow CO2 hydrase assay. It counts as biochemical. The conditions noted are these: stopped-flow technique; incubation time 6 h; mean of 3 assays. The procedure, abridged: (§3)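 Stopped-flow CO2 hydration used saturated CO2 solutions at 25 °C as substrate. Enzyme and inhibitor (10 μM stocks in DMSO-water, diluted down to 0.01 nM) were preincubated for 6 h at room temperature.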

The target in another assay is T2, hCA I (Homo sapiens, UniProt P00915).
T2 construct: made in house
T2 sequence (P00915 whole entry): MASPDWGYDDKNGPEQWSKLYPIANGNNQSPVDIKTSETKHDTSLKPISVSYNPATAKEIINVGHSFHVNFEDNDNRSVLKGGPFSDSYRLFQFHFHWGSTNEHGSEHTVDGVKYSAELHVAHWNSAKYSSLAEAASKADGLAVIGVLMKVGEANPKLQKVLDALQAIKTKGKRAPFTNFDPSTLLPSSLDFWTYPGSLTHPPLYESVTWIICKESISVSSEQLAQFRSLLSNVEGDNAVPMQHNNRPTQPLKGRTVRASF
In words: CA inhibition, stopped-flow CO2 hydrase assay. Format: biochemical. The conditions noted are these: stopped-flow technique; incubation time 6 h; mean of 3 assays. The procedure, abridged:
as §3

Another assay has as its target T3, hCA II (Homo sapiens, UniProt P00918).
T3 construct: made in house
Kind of assay: CA inhibition, stopped-flow CO2 hydrase assay. Format: biochemical. The conditions noted are these: stopped-flow technique; incubation time 6 h; mean of 3 assays. The procedure, abridged: as §3

For another assay, the target named is T4, hCA XII (Homo sapiens, UniProt O43570).
T4 construct: made in house
T4 sequence (O43570 25-354): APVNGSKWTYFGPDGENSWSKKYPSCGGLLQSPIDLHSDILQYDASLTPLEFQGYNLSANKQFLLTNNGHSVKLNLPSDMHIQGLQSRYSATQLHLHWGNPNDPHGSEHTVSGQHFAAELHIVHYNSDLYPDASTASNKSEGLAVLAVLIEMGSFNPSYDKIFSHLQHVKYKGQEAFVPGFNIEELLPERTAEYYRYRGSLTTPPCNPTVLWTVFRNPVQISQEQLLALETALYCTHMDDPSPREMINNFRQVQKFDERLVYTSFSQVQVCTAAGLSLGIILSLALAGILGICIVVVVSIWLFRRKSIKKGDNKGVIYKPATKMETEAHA
Kind of assay: CA inhibition, stopped-flow CO2 hydrase assay. Format: biochemical. The conditions noted are these: stopped-flow technique; incubation time 6 h; mean of 3 assays. The procedure, abridged: as §3

Assay [3] deals with HT29/DOX cells. Kind of assay: Intracellular doxorubicin accumulation. It counts as cell-based, human. The conditions noted are these: compound at 3 µM + doxorubicin 5 µM, 24 h, vs doxorubicin alone. The procedure: (§4) Furthermore, we evaluated the intracellular accumulation of 5 µM doxorubicin in HT29/DOX and A549/DOX cells alone and in the presence of derivatives 1, 2, 4–6, 14, 19 and 33, studied at 1 and 3 µM. This test allowed us to investigate if the reduced viability measured in the co-administration assay was due to different retention of the anticancer drug within the cells. In the parental HT29 and A549 cell lines, we measured a greater amount of intracellular doxorubicin compared to their resistant counterparts, which was not enhanced by our selected compounds (Supplementary Materials, Figure S7). However, in HT29/DOX and A549/DOX cells, derivatives 1, 2, 4–6, 14, 19 and 33 were able to increase the intracellular retention of the anticancer drug, in a dose-dependent way. […]
(§5) Intracellular doxorubicin was measured in 10,000 cells seeded into 96-well plates and incubated for 24 h with 5 µM doxorubicin with or without 1 µM and 3 µM of each compound. The intracellular drug content was measured fluorimetrically as detailed previously using a Synergy HTX 96-well plate reader. The results were expressed as nmol doxorubicin/mg cell proteins based on the titration curve previously prepared.

The test system of assay [4] is A549/DOX cells. Kind of assay: Intracellular doxorubicin accumulation. Format: cell-based, human. The conditions noted are these: compound at 3 µM + doxorubicin 5 µM, 24 h, vs doxorubicin alone. How it is done: as §4, §5

The EC50 is the midpoint of the concentration-response curve. For orientation: Ki means a measure of affinity in units of concentration, obtained from inhibition or displacement. A high value points to a looser hold on the target. As to `COc1ccc(C(CCCN2CCN(CCCCOc3ccc4oc(=O)ccc4c3)CC2)c2ccc(OC)cc2)cc1` [Compound 33, 6-(4-(4-(4,4-Bis(4-methoxyphenyl)butyl)piperazin-1-yl)butoxy)-2H-chromen-2-one], the “reduction in cell viability” value was 67.6% with HT29/DOX cells [1] and 62.6% with A549/DOX cells [2]. Moreover, the EC50 at P-gp is 3020 ± 90 nM. The “RF (Reversal Fold: IC50 of doxorubicin alone / in presence of modulator)” value with K562/DOX cells is on record as 9.9. In addition, the inhibition constant Ki at hCA IX is 74.6 nM; on hCA I, over 10000 nM; on hCA II, over 10000 nM; at hCA XII it was 46.8 nM. Moreover, the “greater accumulation of doxorubicin” value in the assay on HT29/DOX cells [3] amounted to 3 fold; with A549/DOX cells [4], 4 fold.
